Experimental data as given in patent US20230141563A1, “METHODS AND COMPOSITIONS FOR ATTENUATING ANTI-VIRAL TRANSFER VECTOR IGM RESPONSES” (Selecta Biosciences, Inc., priority 2021, published 2023).

Test system: AAV IgG
Experiment: Serum AAV IgG (ELISA) in AAV-SEAP-injected mice
Type: in vivo, C57BL/6 female mice
Conditions: Example 12; SVP[Rapa] 100 μg; ibrutinib 500 μg
Protocol: At time indicated (days 5, 9, 12, 16, 21, 42, 47, 51, 55, 162,167,174, 195 and 210) mice were bled, serum separated from whole blood and stored at −20±5° C. until analysis. Then IgM antibodies to AAV was measured in ELISA: 96-well plates coated o/n with the AAV, washed and blocked on the following day, then diluted serum samples (1:40) added to the plate and incubated; plates washed, donkey anti-mouse IgM specific-HRP added and after another incubation and wash, the presence of IgM antibodies to AAV detected by adding TMB substrate and measuring at an absorbance of 450 nm with a reference wavelength of 570 nm (the intensity of the signal presented as top optical density, OD, is directly proportional to the quantity of IgM antibody in the sample).
Same serum samples from Example 3 were also tested for AAV IgG measured by ELISA along the same lines as IgM with the exception of goat anti-mouse IgG specific-HRP being used.

C=CC(=O)N1CCC[C@@H](n2nc(-c3ccc(Oc4ccccc4)cc3)c3c(N)ncnc32)C1 [ibrutinib]
animals AAV IgG-converting by d22: 10/10
